# Read-outs that look alike come from different tables or passages of the source.
# What was measured:
# [1] = target: T1, CCKAR (Homo sapiens, UniProt P32238); experiment: Safety47 Calcium Flux CCKAR; type: cell-based; conditions: for Emax: read-out: Max Response; for EC50: read-out: RC50 (EC50); for IC50: read-out: RC50 (IC50)
# T1 construct: purchased Eurofins Panlab Safety47 Safety Scan
# T1 sequence (P32238 1-428): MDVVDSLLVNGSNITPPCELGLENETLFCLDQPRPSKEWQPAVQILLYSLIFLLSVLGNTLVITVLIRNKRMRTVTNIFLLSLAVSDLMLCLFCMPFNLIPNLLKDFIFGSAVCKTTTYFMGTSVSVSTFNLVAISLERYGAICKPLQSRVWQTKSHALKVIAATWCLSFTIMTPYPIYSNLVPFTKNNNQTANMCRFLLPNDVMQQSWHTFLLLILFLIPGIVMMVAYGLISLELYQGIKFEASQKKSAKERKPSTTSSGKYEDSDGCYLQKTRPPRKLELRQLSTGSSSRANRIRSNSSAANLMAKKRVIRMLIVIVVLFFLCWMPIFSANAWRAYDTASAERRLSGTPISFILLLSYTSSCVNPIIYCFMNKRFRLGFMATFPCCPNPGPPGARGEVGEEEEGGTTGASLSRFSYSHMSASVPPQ
# [2] = target: T2, hERG (Homo sapiens, UniProt Q12809); experiment: Safety47 Ion Channel hERG; type: cell-based; conditions: Blocker; for IC50: read-out: RC50 (IC50); for Emax: human, read-out: Max Response
# T2 construct: purchased Eurofins Panlab (Safety47 Safety Scan, contract panel)
# T2 sequence (Q12809 whole entry): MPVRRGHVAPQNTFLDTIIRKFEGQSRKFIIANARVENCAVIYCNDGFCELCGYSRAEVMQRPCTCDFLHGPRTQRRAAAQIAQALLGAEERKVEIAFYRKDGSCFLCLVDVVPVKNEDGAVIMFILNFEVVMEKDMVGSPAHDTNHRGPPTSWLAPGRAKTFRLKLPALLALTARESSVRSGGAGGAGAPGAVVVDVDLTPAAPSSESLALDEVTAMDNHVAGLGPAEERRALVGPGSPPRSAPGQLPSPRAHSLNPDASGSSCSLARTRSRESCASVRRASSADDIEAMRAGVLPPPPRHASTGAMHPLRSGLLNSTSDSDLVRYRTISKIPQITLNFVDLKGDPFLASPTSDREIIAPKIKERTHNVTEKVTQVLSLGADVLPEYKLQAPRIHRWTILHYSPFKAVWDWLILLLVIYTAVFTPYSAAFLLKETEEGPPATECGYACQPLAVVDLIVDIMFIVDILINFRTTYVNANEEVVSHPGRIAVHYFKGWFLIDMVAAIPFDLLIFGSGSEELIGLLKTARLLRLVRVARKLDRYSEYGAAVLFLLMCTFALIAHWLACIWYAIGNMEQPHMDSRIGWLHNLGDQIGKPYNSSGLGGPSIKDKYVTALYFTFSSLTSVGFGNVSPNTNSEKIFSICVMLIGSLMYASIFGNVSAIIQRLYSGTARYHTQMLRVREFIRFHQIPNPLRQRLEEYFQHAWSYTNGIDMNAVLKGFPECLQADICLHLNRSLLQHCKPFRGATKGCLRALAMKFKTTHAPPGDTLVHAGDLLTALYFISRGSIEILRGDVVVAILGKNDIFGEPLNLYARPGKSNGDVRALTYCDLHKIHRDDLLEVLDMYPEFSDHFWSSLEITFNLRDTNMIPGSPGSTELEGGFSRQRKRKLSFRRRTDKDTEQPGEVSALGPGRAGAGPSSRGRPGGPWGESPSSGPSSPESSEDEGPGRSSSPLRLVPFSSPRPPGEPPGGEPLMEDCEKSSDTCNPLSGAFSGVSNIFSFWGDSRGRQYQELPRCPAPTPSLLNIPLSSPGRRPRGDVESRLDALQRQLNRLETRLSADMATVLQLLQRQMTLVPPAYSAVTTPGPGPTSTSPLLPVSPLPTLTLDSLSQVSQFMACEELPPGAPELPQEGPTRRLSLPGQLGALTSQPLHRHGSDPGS
# [3] = target: T3, ADRA1A (Homo sapiens, UniProt P35348); experiment: Safety47 Calcium Flux ADRA1A; type: cell-based; conditions: for Emax: read-out: Max Response; for EC50: read-out: RC50 (EC50); for IC50: read-out: RC50 (IC50)
# T3 construct: purchased Eurofins Panlab Safety47 Safety Scan
# T3 sequence (P35348 1-466): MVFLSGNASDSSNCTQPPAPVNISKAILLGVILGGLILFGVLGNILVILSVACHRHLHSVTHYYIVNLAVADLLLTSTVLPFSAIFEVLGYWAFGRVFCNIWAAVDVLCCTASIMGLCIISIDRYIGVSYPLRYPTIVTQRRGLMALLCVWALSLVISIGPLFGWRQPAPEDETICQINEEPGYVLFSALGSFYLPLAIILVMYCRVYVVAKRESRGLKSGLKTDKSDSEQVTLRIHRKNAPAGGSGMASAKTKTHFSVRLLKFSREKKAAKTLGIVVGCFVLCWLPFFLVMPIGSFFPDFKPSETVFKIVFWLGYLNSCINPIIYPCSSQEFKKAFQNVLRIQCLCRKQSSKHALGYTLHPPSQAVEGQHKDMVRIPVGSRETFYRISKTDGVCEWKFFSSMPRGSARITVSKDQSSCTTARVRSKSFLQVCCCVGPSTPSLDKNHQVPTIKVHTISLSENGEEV
# [4] = target: T4, GR (Homo sapiens, UniProt P04150); experiment: Safety47 NHR Protein Interaction GR; type: cell-based; conditions: for Emax: read-out: Max Response; for EC50: read-out: RC50 (EC50); for IC50: read-out: RC50 (IC50)
# T4 construct: purchased Eurofins Panlab (Safety47 Safety Scan, contract panel)
# T4 sequence (P04150 1-777): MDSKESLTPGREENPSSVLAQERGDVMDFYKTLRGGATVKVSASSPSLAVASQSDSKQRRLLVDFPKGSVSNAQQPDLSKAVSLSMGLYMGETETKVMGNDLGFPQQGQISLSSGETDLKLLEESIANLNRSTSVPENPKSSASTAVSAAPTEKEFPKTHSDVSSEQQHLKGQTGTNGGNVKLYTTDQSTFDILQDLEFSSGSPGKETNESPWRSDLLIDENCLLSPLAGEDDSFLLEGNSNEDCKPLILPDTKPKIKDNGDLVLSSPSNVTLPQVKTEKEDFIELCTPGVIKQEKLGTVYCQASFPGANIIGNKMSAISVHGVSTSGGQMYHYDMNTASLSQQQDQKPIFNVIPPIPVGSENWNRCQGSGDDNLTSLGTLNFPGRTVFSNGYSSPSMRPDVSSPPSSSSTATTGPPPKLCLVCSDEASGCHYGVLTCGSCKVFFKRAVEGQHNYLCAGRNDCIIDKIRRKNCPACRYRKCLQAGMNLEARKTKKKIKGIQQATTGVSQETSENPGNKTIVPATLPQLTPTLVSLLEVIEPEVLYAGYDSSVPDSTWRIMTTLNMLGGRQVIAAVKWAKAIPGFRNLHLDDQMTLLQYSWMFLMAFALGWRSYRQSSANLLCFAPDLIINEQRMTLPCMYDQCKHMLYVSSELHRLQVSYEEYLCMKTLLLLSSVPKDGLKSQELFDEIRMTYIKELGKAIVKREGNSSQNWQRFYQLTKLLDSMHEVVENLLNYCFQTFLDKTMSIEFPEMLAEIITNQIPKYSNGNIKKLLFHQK
# [5] = target: T5, CHRM3 (Homo sapiens, UniProt P20309); experiment: Safety47 Calcium Flux CHRM3; type: cell-based; conditions: for Emax: read-out: Max Response; for EC50: read-out: RC50 (EC50); for IC50: read-out: RC50 (IC50)
# T5 construct: purchased Eurofins Panlab Safety47 Safety Scan
# T5 sequence (P20309 whole entry): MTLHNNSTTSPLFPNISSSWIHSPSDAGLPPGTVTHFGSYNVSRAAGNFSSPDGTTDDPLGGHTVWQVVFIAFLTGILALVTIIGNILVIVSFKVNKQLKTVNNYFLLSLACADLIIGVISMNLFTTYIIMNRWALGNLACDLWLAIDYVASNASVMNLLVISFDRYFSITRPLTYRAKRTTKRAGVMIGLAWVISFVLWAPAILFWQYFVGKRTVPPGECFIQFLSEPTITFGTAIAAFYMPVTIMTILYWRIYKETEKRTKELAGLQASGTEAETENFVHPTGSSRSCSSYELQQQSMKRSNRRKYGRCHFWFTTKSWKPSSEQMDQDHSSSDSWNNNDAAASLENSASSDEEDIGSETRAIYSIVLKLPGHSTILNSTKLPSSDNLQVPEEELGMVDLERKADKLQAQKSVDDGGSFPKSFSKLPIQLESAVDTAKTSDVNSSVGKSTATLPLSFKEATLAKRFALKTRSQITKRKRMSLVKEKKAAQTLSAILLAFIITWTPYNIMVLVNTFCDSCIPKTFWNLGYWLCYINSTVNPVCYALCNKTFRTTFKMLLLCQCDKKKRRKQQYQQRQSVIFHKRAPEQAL
# [6] = tested on: GABAA; experiment: Safety47 Ion Channel GABAA; type: cell-based; conditions: for IC50: read-out: RC50 (IC50); for EC50: read-out: RC50 (EC50)
# [7] = target: DCAF7 / phosphorylated TFEB peptide (Ser138, Ser142) (Homo sapiens, UniProt P61962); experiment: TFEB peptide binding assay with recombinant DCAF7; conditions: DCAF7 preincubated with compound
# Sequence of DCAF7 / phosphorylated TFEB peptide (Ser138, Ser142) (P61962 whole entry): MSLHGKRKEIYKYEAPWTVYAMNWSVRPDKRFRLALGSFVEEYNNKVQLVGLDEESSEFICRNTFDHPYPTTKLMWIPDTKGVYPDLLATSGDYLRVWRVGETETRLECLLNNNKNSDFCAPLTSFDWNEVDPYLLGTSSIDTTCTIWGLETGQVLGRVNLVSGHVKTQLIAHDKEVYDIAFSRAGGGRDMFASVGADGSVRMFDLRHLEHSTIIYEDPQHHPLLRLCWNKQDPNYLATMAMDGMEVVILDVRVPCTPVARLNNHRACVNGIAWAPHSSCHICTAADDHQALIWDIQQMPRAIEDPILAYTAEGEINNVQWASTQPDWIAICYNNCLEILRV
# [8] = target: T6, VEGFR2 (Homo sapiens, UniProt P35968); experiment: Safety47 Kinase Binding VEGFR2; conditions: Kinases, Inhibitor; for Emax: read-out: Max Response; for IC50: read-out: RC50 (IC50)
# T6 construct: purchased Eurofins Panlab (Safety47 Safety Scan, contract panel)
# T6 sequence (P35968 20-1356, species assumed): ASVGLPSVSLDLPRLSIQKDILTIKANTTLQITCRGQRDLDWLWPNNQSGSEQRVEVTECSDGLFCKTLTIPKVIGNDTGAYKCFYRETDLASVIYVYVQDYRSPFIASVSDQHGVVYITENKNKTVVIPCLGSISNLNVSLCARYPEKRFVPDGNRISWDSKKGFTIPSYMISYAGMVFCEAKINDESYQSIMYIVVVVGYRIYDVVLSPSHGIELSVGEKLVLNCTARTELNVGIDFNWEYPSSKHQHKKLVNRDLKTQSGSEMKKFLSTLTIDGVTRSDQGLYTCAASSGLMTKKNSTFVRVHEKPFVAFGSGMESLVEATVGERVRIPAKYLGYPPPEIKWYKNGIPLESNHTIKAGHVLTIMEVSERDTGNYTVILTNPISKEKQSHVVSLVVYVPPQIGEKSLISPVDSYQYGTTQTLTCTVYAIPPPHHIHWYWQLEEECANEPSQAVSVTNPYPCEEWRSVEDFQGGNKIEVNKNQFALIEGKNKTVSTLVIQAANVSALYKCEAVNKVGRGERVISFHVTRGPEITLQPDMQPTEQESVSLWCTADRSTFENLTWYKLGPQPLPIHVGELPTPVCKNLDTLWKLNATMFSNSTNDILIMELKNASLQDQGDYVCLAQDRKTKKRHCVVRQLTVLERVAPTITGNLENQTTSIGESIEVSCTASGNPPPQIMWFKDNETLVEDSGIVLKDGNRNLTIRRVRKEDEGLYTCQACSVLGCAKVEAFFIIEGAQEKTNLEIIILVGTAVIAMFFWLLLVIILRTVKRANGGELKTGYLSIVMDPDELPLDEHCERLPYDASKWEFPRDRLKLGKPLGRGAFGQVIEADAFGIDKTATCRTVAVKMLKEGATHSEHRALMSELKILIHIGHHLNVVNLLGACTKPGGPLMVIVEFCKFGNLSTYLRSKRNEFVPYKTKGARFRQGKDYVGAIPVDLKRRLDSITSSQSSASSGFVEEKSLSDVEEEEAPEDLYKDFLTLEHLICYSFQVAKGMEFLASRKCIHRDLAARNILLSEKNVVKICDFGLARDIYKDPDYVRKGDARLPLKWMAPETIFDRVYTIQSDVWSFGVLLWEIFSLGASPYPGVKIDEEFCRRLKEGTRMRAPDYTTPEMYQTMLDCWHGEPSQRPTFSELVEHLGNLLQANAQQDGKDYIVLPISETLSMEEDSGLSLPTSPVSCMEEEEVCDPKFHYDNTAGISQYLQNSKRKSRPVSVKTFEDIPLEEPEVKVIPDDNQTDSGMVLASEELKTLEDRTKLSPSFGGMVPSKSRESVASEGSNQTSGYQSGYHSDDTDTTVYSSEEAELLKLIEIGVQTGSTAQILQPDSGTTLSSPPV
# [9] = target: T7, HTR3A (Homo sapiens, UniProt P46098); experiment: Safety47 Ion Channel HTR3A; type: cell-based; conditions: for Emax: read-out: Max Response; for IC50: read-out: RC50 (IC50); for EC50: read-out: RC50 (EC50)
# T7 construct: purchased Eurofins Panlab (Safety47 Safety Scan, contract panel)
# T7 sequence (P46098 24-478): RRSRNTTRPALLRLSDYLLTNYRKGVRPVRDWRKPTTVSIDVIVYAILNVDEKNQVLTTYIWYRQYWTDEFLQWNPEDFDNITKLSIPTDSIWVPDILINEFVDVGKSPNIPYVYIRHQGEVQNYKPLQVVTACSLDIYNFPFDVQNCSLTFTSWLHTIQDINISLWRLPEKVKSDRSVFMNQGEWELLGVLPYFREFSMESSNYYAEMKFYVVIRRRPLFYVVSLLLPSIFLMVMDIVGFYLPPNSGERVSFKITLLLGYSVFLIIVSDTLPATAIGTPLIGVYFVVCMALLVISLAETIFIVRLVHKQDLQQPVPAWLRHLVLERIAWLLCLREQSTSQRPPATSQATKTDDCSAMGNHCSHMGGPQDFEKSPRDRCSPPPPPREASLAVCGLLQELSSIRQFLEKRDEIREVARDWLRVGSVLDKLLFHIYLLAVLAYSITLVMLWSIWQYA
Compound,Emax ([1]; Agonist) [%],EC50 ([1]; Agonist) [µM],Emax ([1]; Antagonist) [%],IC50 ([1]; Antagonist) [µM],IC50 [2] [µM],Emax [2] [%],Emax ([3]; Agonist) [%],EC50 ([3]; Agonist) [µM],Emax ([3]; Antagonist) [%],IC50 ([3]; Antagonist) [µM],Emax ([4]; Agonist) [%],EC50 ([4]; Agonist) [µM],Emax ([4]; Antagonist) [%],IC50 ([4]; Antagonist) [µM],Emax ([5]; Agonist) [%],EC50 ([5]; Agonist) [µM],Emax ([5]; Antagonist) [%],IC50 ([5]; Antagonist) [µM],Max Response ([6]; Blocker),IC50 ([6]; Blocker) [µM],further results
"Cl.c1ccc2c(Nc3ccc4[nH]ccc4c3)nc(-c3ccncc3)nc2c1 [BC18630, N-1H-indol-5-yl-2-pyridin-4-ylquinazolin-4-amine hydrochloride]",1.69,> 10,0,> 10,> 10,6.14,0,> 10,0,> 10,0,> 10,0,> 10,0,> 10,13.7,> 10,27.61,> 10,Max Response ([6]; Opener): 0.97; EC50 ([6]; Opener): > 10 µM; In vitro peptide binding [7]: reduced; Emax [8]: 13.7%; IC50 [8]: > 10 µM; Curve Bottom ([9]; Blocker): 0; Curve Top ([9]; Blocker): 100; Hill ([9]; Blocker): 1.9; Emax ([9]; Blocker): 69.9%; IC50 ([9]; Blocker): 6.43 µM; Emax ([9]; Opener): 0%; EC50 ([9]; Opener): > 10 µM
"Cl.Fc1cc(Nc2nc(-c3ccncc3)nc3ncccc23)cc2cc[nH]c12 [BC18813, N-(7-fluoro-1H-indol-5-yl)-2-pyridin-4-ylpyrido[2,3-d]pyrimidin-4-amine hydrochloride]",2.97,> 10,0,> 10,> 10,4.86,5.5,> 10,1.12,> 10,4.56,> 10,7.56,> 10,0.56,> 10,16.6,> 10,19.98,> 10,Max Response ([6]; Opener): 0.77; EC50 ([6]; Opener): > 10 µM; In vitro peptide binding [7]: reduced; Emax [8]: 0.27%; IC50 [8]: > 10 µM; Emax ([9]; Blocker): 0%; IC50 ([9]; Blocker): > 10 µM; Emax ([9]; Opener): 0.03%; EC50 ([9]; Opener): > 10 µM

# Reference: publication PMC12136031 (Science Advances, 2025)
